Results as given in publication PMC12128972, “TYRA-300, an FGFR3-selective inhibitor, promotes bone growth in two FGFR3-driven models of chondrodysplasia” (JCI Insight, 2025).
“And” between values parts separate entries of the source, which are not always exact repeats. Identical values can stand only once.

Legend:
[1] = tested on: femurs of Fgfr3^Y367C/+ mice; test: Fgfr3Y367C/+ mice: microCT of femurs (SOC bone volume, BMD, BV/TV); type: in vivo, mouse; conditions: 1.2 mg/kg s.c. daily for 15 days
Experimental: Finally, measurements of trabecular bone quality were performed using μCT imaging of the femurs (Supplemental Figure 2).
Femurs were placed in 70% ethanol at 4°C and measured on the Skyscan-1272 (Bruker) with the following parameters: 60 kV, 166 μA, 0.25 mm aluminum filter. Within the femurs, the trabecular parameters were obtained at 5 μm voxel resolution in a ROI (normalized to 7% of the femur length in size) beginning 255 μm proximal to the distal growth plate for controls, 25 μm for Fgfr3^Y367C/+ + vehicle, and 35 μm for Fgfr3^Y367C/+ + TYRA-300. The BMD and BV/TV of the metaphysis were measured using on a set of sections located within the secondary spongiosa under the growth plate. The measured volume was chosen to be proportional to the femur length (typically 630 μm for control animals and 310 μm for Fgfr3^Y367C/+ + vehicle and 415 μm for Fgfr3^Y367C/+ + TYRA-300.) Scan reconstruction was done using NRecon (v 1.7.4.6). Scan orientation was done using DataViewer (v 1.7.0.1). 3D Analysis for trabecular bone was performed using CT Analyzer (v 1.23.0.2).

[2] = tested on: lumbar vertebrae of Fgfr3^Y367C/+ mice; test: Fgfr3Y367C/+ mice: lumbar vertebrae and intervertebral discs (calipers, histology); type: in vivo, mouse; conditions: 1.2 mg/kg s.c. daily for 15 days
Experimental: Individuals with ACH frequently experience back pain and may undergo multiple spinal surgeries throughout their lives ([40]). Kyphosis and scoliosis are common with ACH and are also observed in the Fgfr3^Y367C/+ mouse model ([40]), and Fgfr3 is expressed in the intervertebral discs of Fgfr3^Y367C/+ mice ([28]). To determine how TYRA-300 affects the vertebrae and intervertebral discs, the spine was analyzed in the Fgfr3^Y367C/+ mice treated with TYRA-300 or vehicle.
(§1) Whole body x-ray images were taken of all animals by Faxitron specimen radiography MX-20 (Faxitron X-Ray LLC) following terminal sacrifice. The length of the L4–L6 lumbar vertebra segment was also measured for each animal using calipers, and the height of the L5 vertebral body was measured from Alcian blue/Sirius red images. Long bones and the skull were then excised, and their dimensions were measured using calipers (VWRi819-0013, VWR International). The transverse and sagittal diameters of the foramen magnum were also measured using calipers for the Fgfr3^Y367/+ model, and measured using the μCT images for the Fgfr3^N534K/+ model.
The right femur and lumbar vertebrae segment L4–L6 were collected and fixed in 4% paraformaldehyde, decalcified with ethylenediaminetetraacetic acid (EDTA) 0.5 M (pH 8) for 2 or 3 weeks, and embedded in paraffin. Serial paraffin sections of 5 μm were stained with hematoxylin, eosin, and Safranin O. For immunohistochemistry, sections were labeled with antibodies against collagen type X (BIOCYC ref. [1]-CO097-05-RUO, 1:100 dilution), collagen type I (Novotec, 20151, dilution 1:1,000), pERK (Cell Signaling, 4370S, dilution 1:1,000), and PCNA (Abcam, GR3195972-6, 1:500 dilution) using the Dako Envision Kit. Images were captured with an Olympus PD70-IX2-UCB microscope and CellSens software (Olympus Life Science Solutions). Cells were counted using ImageJ software (NIH, Laboratory for Optical Computational Instrumentation).

[3] = tested on: Fgfr3^N534K/+ mouse model of HCH; test: Fgfr3N534K/+ mice: long bone length; type: in vivo
Experimental: To explore the effectiveness of TYRA-300 in an additional model of FGFR3-related chondrodysplasia, TYRA-300 was evaluated in a Tg-CMV^Cre/+/Fgfr3^N534K/+ mouse model of HCH ([42]). This model is driven by the Fgfr3 N534K mutation, which corresponds to the human FGFR3 N540K mutation ([9], [43]). This model closely recapitulates the skeletal phenotype of HCH in humans, with a milder disproportionate short stature phenotype ([42]). […] Because the goal of treatment with TYRA-300 is to […] Fgfr3 signaling levels, Fgfr3^N534K/+ mice were administered a lower dose of 1.8 mg/kg TYRA-300 daily for the full study. Mice were treated for 21 days, from 3 to 24 days of age. Treatment was started at an older age in the HCH model than in the ACH model, as children with HCH are often diagnosed later than children with ACH.
Tg-CMV^Cre/+/Fgfr3^N534K/+ mice were tattooed and assigned to treatment groups within each litter at 3 days of age (wild-type mice, Fgfr3^N534K/+ mice treated with vehicle, or Fgfr3^N534K/+ mice treated with 1.8 mg/kg TYRA-300). TYRA-300 was dissolved in aqueous HCl (3.5 mM) containing 5% DMSO and administered subcutaneously to Fgfr3^N534K/+ mice (n = 9) for 21 days. The vehicle was administered to wild-type (n = 12) or Fgfr3^N534K/+ mice (n = 11) for 21 days. Subcutaneous administration was used for this study rather than oral gavage due to the size of the mice. Clinical observations, nasoanal length, and tail length measurements were performed every 3 days, and body weights were collected daily.
as §1

[4] = 1.8 mg/kg daily s.c. for 21 days, 3 to 24 days of age
[5] = Fgfr3N534K/+ mice + TYRA-300, individual animal values, in mm (unit assumed)

SMILES: C[C@@H](Oc1ccc2[nH]nc(-c3ccc(N4CC5(C4)CN(S(C)(=O)=O)C5)nc3)c2c1)c1c(Cl)cncc1Cl [TYRA-300]
- bone volume of the SOC (microCT) vs vehicle [1]: significant increase
- increase in bone mineral density (BMD) vs vehicle ([1]; femoral metaphyses): 21.4%
- increase in bone volume-to-tissue volume ratio (BV/TV) vs vehicle ([1]; femoral metaphyses): 73.3%
- height of the vertebral bodies vs vehicle [2]: increased the height of the vertebral bodies
- increase in L4-L6 lumbar vertebrae segment length vs vehicle [2]: 23.49%
- shape of the intervertebral disc [2]: decreasing the height and increasing the lateral width of the nucleus pulposus
- increase in femur length vs vehicle [3, 4]: 3.70%
- increase in humerus length vs vehicle [3, 4]: 3.22%
- increase in tibia length vs vehicle [3, 4]: 3.75%
- increase in ulna length vs vehicle [3, 4]: 5.03%
- source data of Figure 4A (sheet "4A"): long bone length, bone not given [3, 5]: 12.31 and 12.55 and 12.375 and 11.91 and 12.485 and 12.9 and 12.58 and 12.185 and 11.555
- source data of Figure 4B (sheet "4B"): long bone length, bone not given [3, 5]: 10.06 and 10.16 and 10.36 and 9.8 and 10.2 and 10.18 and 10.1 and 10.15 and 9.47
- source data of Figure 4C (sheet "4C"): long bone length, bone not given [3, 5]: 10.705 and 10.605 and 11.015 and 10.35 and 10.8 and 10.795 and 10.61 and 11.13 and 10.195
- source data of Figure 4D (sheet "4D"): long bone length, bone not given [3, 5]: 8.28 and 8.42 and 8.455 and 8.1 and 8.32 and 8.43 and 8.22 and 8.35 and 8.08
- average normalization of long bone length toward wild-type ([3]; HCH model, 1.8 mg/kg): 25%
